From PMC10496123, “Potent Antifungal Activity of Penta-O-galloyl-β-D-Glucose against Drug-Resistant Candida albicans, Candida auris, and Other Non-albicans Candida Species” (ACS Infectious Diseases, 2023)
Values after ≈ are worked out from the molar mass of the structure shown. “Also recorded” adds a separate entry of the source.

Experiments:
Candida albicans = test: Growth inhibition by CLSI microbroth dilution; assay type: cell-based; conditions: for MIC / IC50: Candida albicans, 48 h; for MIC: >90% growth inhibition
Candida parapsilosis = test: Growth inhibition by CLSI microbroth dilution; assay type: cell-based; conditions: for IC50 / MIC: 48 h; for IC50: >50% growth inhibition; for MIC: >90% growth inhibition
Candida glabrata = test: Growth inhibition by CLSI microbroth dilution; assay type: cell-based; conditions: for IC50 / MIC: Nakaseomyces glabratus, 48 h; for IC50: >50% growth inhibition; for MIC: >90% growth inhibition
[1] = tested on: C. albicans wild type (CAF2-1) and cdr1Δ/Δ cdr2Δ/Δ mdr1Δ/Δ flu1Δ/Δ; test: microbe, parasite or virus in culture; assay type: cell-based, Candida albicans; conditions: for MIC90: Candida albicans, 72 h, RPMI-1640, 72 h, 30 °C, OD600
[2] = tested on: C. albicans wild type (SN95, SN152) and ire1Δ/Δ, hap43Δ/Δ, rim101Δ/Δ; test: microbe, parasite or virus in culture; assay type: cell-based, Candida albicans; conditions: for MIC90: Candida albicans, 48 h, 30 °C
C. glabrata CDC325 = test: Iron supplementation growth inhibition assay; assay type: cell-based, Candida glabrata; conditions: 10 mM iron (II) or iron (III); PGG 4–16 μg mL^–1; 48 h
Experimental: (§1) For iron supplementation assays, growth inhibition assays were performed by microbroth dilution following the guidelines set by the CLSI.[58] A solution of iron (II) sulfate and iron (III) sulfate (VWR) was dissolved in deionized water to a concentration of 10 mM and added to treated wells at the beginning of incubation. Growth inhibition was measured after 48 h. Percent growth inhibition was determined by comparing treatments to vehicle controls. Iron supplementation experiments were repeated in duplicate with three technical replicates per treatment and on different days.

C. auris CDC381 = test: Iron supplementation growth inhibition assay; assay type: cell-based, Candida auris; conditions: 10 mM iron (II) or iron (III); PGG 4–16 μg mL^–1; 48 h
Experimental: as §1

C. albicans 90028 = test: Media supplementation (Mg, Ca, Mn, Zn) growth inhibition assay; assay type: cell-based, Candida albicans
Experimental: For media supplementation experiments, magnesium sulfate (Alfa Aesar), manganese sulfate, zinc sulfate, and calcium chloride (Ward Science) were dissolved in RPMI-1640 media and, after 24 h, added at a final concentration of 1 mM. Growth inhibition was measured 24 h after media supplementation. Percent growth inhibition was determined by comparing treatments to vehicle controls. Media supplementation experiments were repeated in triplicate with four technical replicates per treatment and on different days. page 6: Figure S5. Effect of supplemental cations on growth inhibition of penta-O-galloyl- β-D-glucose against C. albicans. C. albicans.90028 was treated with PGG alone and in combination with 1 mM magnesium (Mg2+) or 1 mM calcium (Ca2+). The data are plotted as mean % growth inhibition ± SD as compared to vehicle controls from two independent experiments. Dotted line represents 90% growth inhibition. S6 (1 picture or pasted object on this page, not shown here) page 7: Figure S6. Effect of supplemental metal ions on growth inhibition of penta-O- galloyl-β-D-glucose against C. albicans. C. albicans 90028 was treated with PGG alone and in combination with 1 mM manganese (Mn2+) or 1 mM zinc (Zn2+). The data are plotted as mean % growth inhibition ± SD as compared to vehicle controls from two independent experiments . Dotted line represents 90% growth inhibition . Statistical analysis was done using 2 -way ANOVA with multiple comparisons. The symbol (*) […] S7 (1 picture or pasted object on this page, not shown here)

[3] = tested on: Staphylococcus aureus (various strains); design: method as in doi:10.1016/j.foodchem.2010.04.072; conditions: antibacterial; possibly iron chelation; cited from earlier work
MRSA (various strains) = conditions: antibacterial; possibly iron chelation; cited from earlier work
SK-HEP-1 cells = tested on: SK-HEP-1 cells; design: method as in PMID 11675148; conditions: inhibition of proliferation; cited from earlier work
HCT-116 cells = tested on: HCT-116 cells; design: method as in PMID 27196315, PMID 29778287; conditions: inhibition of proliferation; cited from earlier work
MDA-MB-231 = tested on: MDA-MB-231; design: method as in PMID 33707603; conditions: induction of apoptosis; cited from earlier work
MDA-MB-468 = tested on: MDA-MB-468; design: method as in PMID 33707603; conditions: induction of apoptosis; cited from earlier work
rats = conditions: up to 120 mg/kg/day intravenously in rats; cited from earlier work
[4] = cited from earlier work

## O=C(OC[C@H]1O[C@@H](OC(=O)c2cc(O)c(O)c(O)c2)[C@H](OC(=O)c2cc(O)c(O)c(O)c2)[C@@H](OC(=O)c2cc(O)c(O)c(O)c2)[C@@H]1OC(=O)c1cc(O)c(O)c(O)c1)c1cc(O)c(O)c(O)c1 [PGG, penta-O-galloyl-β-D-glucose]
Candida albicans; ATCC90028, strain ATCC 90028
  MIC: 1 µg/mL (≈ 1.06 µM)
Candida albicans; ATCC90028, strain ATCC 90028, lowest concentration with >50% growth inhibition
  IC50: 0.5 µg/mL (≈ 0.532 µM)
Candida albicans; strain MH12, >50% growth inhibition
  IC50: 0.25 µg/mL (≈ 0.266 µM)
Candida albicans; strain MH12
  MIC: 0.5 µg/mL (≈ 0.532 µM)
Candida albicans; two strains of C. albicans
  MIC (range over strains): 0.5 to 1.0 μg mL^–1
Candida parapsilosis; strain AR Bank #0335
  IC50: 1 µg/mL (≈ 1.06 µM)
  MIC: 4 µg/mL (≈ 4.25 µM)
Candida parapsilosis; strain AR Bank #0337
  IC50: 0.5 µg/mL (≈ 0.532 µM)
  MIC: 0.5 µg/mL (≈ 0.532 µM)
Candida parapsilosis; strain AR Bank #0338
  IC50: 0.25 µg/mL (≈ 0.266 µM)
  MIC: 0.5 µg/mL (≈ 0.532 µM)
Candida parapsilosis; strain AR Bank #0339
  IC50: 0.5 µg/mL (≈ 0.532 µM)
  MIC: 1 µg/mL (≈ 1.06 µM)
Candida parapsilosis; four strains of C. parapsilosis
  MIC (range over strains): 0.5 to 4.0 μg mL^–1
Candida glabrata; strain AR Bank #0325
  IC50: 0.25 µg/mL (≈ 0.266 µM)
  MIC: 0.5 µg/mL (≈ 0.532 µM)
Candida glabrata; strain AR Bank #0326
  IC50: 0.125 µg/mL (≈ 0.133 µM)
  MIC: 0.25 µg/mL (≈ 0.266 µM)
Candida glabrata; two strains of C. glabrata
  MIC (range over strains): 0.25 to 0.5 μg mL^–1
[1]; Wild type (CAF2-1)
  MIC90: > 5 µg/mL
[1]; cdr1Δ/Δ cdr2Δ/Δ mdr1Δ/Δ flu1Δ/Δ
  MIC90: > 5 µg/mL
[1]; mutant versus wild type
  Effect of absence of major efflux pumps (CDR1, CDR2, FLU1, MDR1) on sensitivity: did not modify sensitivity
[2]; Wild type (SN95)
  MIC90: > 20 µg/mL
[2]; Wild type (SN152)
  MIC90: > 20 µg/mL
[2]; hap43Δ/Δ
  MIC90: 0.625 µg/mL (≈ 0.664 µM)
[2]; ire1Δ/Δ
  MIC90: 0.625 µg/mL (≈ 0.664 µM)
[2]; rim101Δ/Δ
  MIC90: 0.625 µg/mL (≈ 0.664 µM)
[2]; mutants versus wild type
  Effect of deletion of IRE1, HAP43 and RIM101 on sensitivity: hypersensitive; also recorded: hypersensitivity
C. glabrata CDC325
  Reduction of the growth inhibitory activity on iron supplementation: 80–100%
C. auris CDC381
  Reduction of the growth inhibitory activity on iron supplementation: 80–100%
C. albicans 90028; 1 mM Mg2+ or Ca2+
  Effect of cation treatment (calcium, magnesium) on growth inhibition: no significant effect
C. albicans 90028; 1 mM Mn2+, at 0.5× MIC of PGG
  Effect of manganese supplementation on growth inhibition: minor effect
C. albicans 90028; 1 mM Zn2+
  Effect of zinc supplementation on growth inhibition: no effect
[3]
  IC50/EC50: 16 to 32 µg/mL
MRSA (various strains)
  IC50/EC50: 16 to 32 µg/mL
SK-HEP-1 cells
  IC50/EC50: 25 to 50 µM
HCT-116 cells
  IC50/EC50: 1.61 µM
MDA-MB-231
  IC50/EC50: 50.23 µM
MDA-MB-468
  IC50/EC50: 35.72 µM
rats
  Tolerability: no ill effects
[4]
  Efflux ratio: high efflux ratio
